The subject of this assay is rabbit skeletal myofibrils (approximately 90% fast fibers). Put plainly: Activation of fast skeletal myofibrils (PUMA coupled-enzyme ATPase assay). It counts as biochemical. As to conditions: concentration at which the compound increased the enzymatic activity by 40%; calcium at pCa25; PM12 buffer pH 6.8. Summed up:
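Rabbit psoas myofibrils (Triton-washed, ~90% fast fibers) at calcium giving 25% of maximal ATPase rate (pCa25). ADP regenerated via pyruvate kinase/lactate dehydrogenase coupling, NADH oxidation read as absorbance at 340 nm. Buffer 12 mM PIPES, 2 mM MgCl2, 1 mM DTT, pH 6.8.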
Regarding `CC[C@H](C)[C@H]1C(=O)Nc2ccccc2N1C(=O)NC` [Compound 102, (S)-2-((S)-sec-butyl)-N-methyl-3-oxo-3,4-dihydroquinoxaline-1(2H)-carboxamide], the AC1.4 amounted to 0.94 µM.

For the compound `CC(C)[C@H]1C(=O)Nc2ccccc2N1C(=O)c1ccc(=O)n(C)c1` [Compound 81, (S)-3-isopropyl-4-(1-methyl-6-oxo-1,6-dihydropyridine-3-carbonyl)-3,4-dihydroquinoxalin-2(1H)-one], the AC1.4 came out at 0.22 µM.

Turning to `CCC[C@H]1C(=O)Nc2ccccc2N1C(=O)c1ccc[nH]1` [Compound 9, (S)-3-propyl-4-(1H-pyrrole-2-carbonyl)-3,4-dihydroquinoxalin-2(1H)-one], the AC1.4 amounted to 0.74 µM.

Take `CCC[C@H]1C(=O)Nc2ccccc2N1C(=O)Nc1ccc(C)nc1` [Compound 8, (S)-N-(6-methylpyridin-3-yl)-3-oxo-2-propyl-3,4-dihydroquinoxaline-1(2H)-carboxamide]: the AC1.4 was determined as 2.73 µM.

As to `CCC[C@H]1C(=O)Nc2ccccc2N1C(=O)c1ccc(-n2cccc2)nc1` [Compound 23, (S)-4-(6-(1H-pyrrol-1-yl)nicotinoyl)-3-propyl-3,4-dihydroquinoxalin-2(1H)-one], the AC1.4 came to 1.33 µM.

On to `CC[C@H](C)[C@H]1C(=O)Nc2ccccc2N1C(=O)CO` [Compound 109, (S)-3-((S)-sec-butyl)-4-(2-hydroxyacetyl)-3,4-dihydroquinoxalin-2(1H)-one], for which the AC1.4 was determined as 1.51 µM.

On to `CC[C@H](C)[C@H]1C(=O)Nc2ccccc2N1C(=O)c1cc[nH]n1` [Compound 79, (S)-3-((S)-sec-butyl)-4-(1H-pyrazole-3-carbonyl)-3,4-dihydroquinoxalin-2(1H)-one], for which the AC1.4 was 0.88 µM.

Take `CC[C@H](C)[C@H]1C(=O)Nc2ccccc2N1C(=O)c1cn[nH]c1` [Compound 72, (S)-3-((S)-sec-butyl)-4-(1H-pyrazole-4-carbonyl)-3,4-dihydroquinoxalin-2(1H)-one]: the AC1.4 amounted to 0.07 µM.

Turning to `CC[C@H](C)[C@H]1C(=O)Nc2ccccc2N1C(=O)N[C@H]1C[C@H](O)C1` [Compound 132, (S)-2-((S)-sec-butyl)-N-((1R,3S)-3-hydroxycyclobutyl)-3-oxo-3,4-dihydroquinoxaline-1(2H)-carboxamide], the AC1.4 worked out at 0.64 µM.

For `CC[C@H](C)[C@H]1C(=O)Nc2ccccc2N1C(=O)c1cnn(C)c1` [Compound 63, (S)-3-((S)-sec-butyl)-4-(1-methyl-1H-pyrazole-4-carbonyl)-3,4-dihydroquinoxalin-2(1H)-one], the AC1.4 stood at 0.04 µM.

Regarding `CCC[C@H]1C(=O)Nc2ccccc2N1C(=O)NCC1CCCCC1` [Compound 51, (S)-N-(cyclohexylmethyl)-3-oxo-2-propyl-3,4-dihydroquinoxaline-1(2H)-carboxamide], the AC1.4 was found to be 0.48 µM.

Turning to `CC[C@H](C)[C@H]1C(=O)Nc2ccccc2N1C(=O)N1CC(CO)C1` [Compound 111, (S)-3-((S)-sec-butyl)-4-(3-(hydroxymethyl)azetidine-1-carbonyl)-3,4-dihydroquinoxalin-2(1H)-one], the AC1.4 was found to be 2.06 µM.

For the compound `CC[C@H](C)[C@H]1C(=O)Nc2ccccc2N1C(=O)N[C@H]1CCNC1` [Compound 126, (S)-2-((S)-sec-butyl)-3-oxo-N-((S)-pyrrolidin-3-yl)-3,4-dihydroquinoxaline-1(2H)-carboxamide], the AC1.4 amounted to 1.53 µM.

As for `CC[C@H](C)[C@H]1C(=O)Nc2ccccc2N1C(=O)OC` [Compound 125, methyl (S)-2-((S)-sec-butyl)-3-oxo-3,4-dihydroquinoxaline-1(2H)-carboxylate], the AC1.4 came out at 1.25 µM.

Consider `CCC[C@H]1C(=O)Nc2ccccc2N1C(=O)c1ccc(N(C)C2CC2)nc1` [Compound 37, (S)-4-(6-(cyclopropyl(methyl)amino)nicotinoyl)-3-propyl-3,4-dihydroquinoxalin-2(1H)-one], for which the AC1.4 worked out at 0.58 µM.
